In the assay the target is T1, S-ribosylhomocysteine lyase (Vibrio harveyi, UniProt B0LUE4).
T1 sequence (B0LUE4 whole entry): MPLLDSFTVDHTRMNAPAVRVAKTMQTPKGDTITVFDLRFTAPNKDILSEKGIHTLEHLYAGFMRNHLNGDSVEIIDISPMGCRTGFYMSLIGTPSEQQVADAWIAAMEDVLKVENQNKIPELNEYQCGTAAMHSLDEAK
In words: LuxS enzyme inhibitors, dose response, mechanism study for V. harveyi quorum sensing inhibitors, biochemical, cell-free, homogeneous (AID 434944).

Our source for the EC50 values is BindingDB's records for doi:10.7270/Q23F4N29 (Broad Institute, 2010).

SMILES strings stand for the structures. A value given as a limit tells only on which side of the number the result lay.

Compound `C=Cn1c(C(=O)O)ccc1-c1ccc(CC)cc1` came in with an EC50 of 149 µM.

In turn, `COc1cc(NC(=O)CN2C(=O)NC(c3ccccc3)(c3ccccc3)C2=O)cc(OC)c1` [MLS001176525] yielded an EC50 greater than 350 µM.

For `CCc1ccc(S(=O)(=O)Nc2ccc(Br)cn2)cc1` [MLS001211346], the EC50 is greater than 350 µM.

The compound `CCCc1ccc(S(=O)(=O)N(C)S(=O)(=O)c2ccc(F)cc2)cc1` [N-(4-fluorophenyl)sulfonyl-N-methyl-4-propylbenzenesulfonamide] gave an EC50 greater than 350 µM.

`CN(C)S(=O)(=O)c1ccc(NC(=S)NC(=O)Cc2ccccc2)cc1` [N-[[4-(dimethylsulfamoyl)phenyl]carbamothioyl]-2-phenyl-ethanamide]: the EC50 is greater than 350 µM.

In turn, `Cc1cccc(NS(=O)(=O)c2ccc(Oc3ccccc3)cc2)n1` [SMR000071466] returned a concentration for a half-maximal effect (EC50) greater than 350 µM.

As to `Cn1cnc(S(=O)(=O)Nc2ccc(OC(F)(F)F)cc2)c1` [SMR000314513], the EC50 was greater than 350 µM.

What is called EC50 is the concentration at which the effect is half-maximal. A higher EC50 goes with a need for much substance.
